Laboratory results as given in publication PMC7942396, “Drug Repurposing Screen for Compounds Inhibiting the Cytopathic Effect of SARS-CoV-2” (Frontiers in Pharmacology, 2021).
Counter-ions that a name gives are not always drawn. Like-named read-outs stand apart in the source and are kept apart here.

Assays:
in vitro = details: African green monkey
[1] = test system: SARS-CoV-2 (USA_WA1/2020); test: microbe, parasite or virus in culture; assay type: cell-based
[2] = Severe acute respiratory syndrome coronavirus 2, Vero C1008, SARS-CoV-2 CPE assay, Vero E6 cells, read-out: CPE % Efficacy
[3] = Severe acute respiratory syndrome coronavirus 2, Vero C1008, SARS-CoV-2 CPE assay, Vero E6 cells, read-out: CPE EC50
[4] = Severe acute respiratory syndrome coronavirus 2, Vero C1008, […], DMSO 0%, no-virus control 100%, hit confirmation, read-out: CPE % efficacy
[5] = Severe acute respiratory syndrome coronavirus 2, Vero C1008, SARS-CoV-2 CPE assay, Vero E6 cells, confirmed anti-SARS-CoV-2 compounds, read-out: CPE EC50
[6] = Severe acute respiratory syndrome coronavirus 2, Vero C1008, SARS-CoV-2 CPE assay, Vero E6 cells, efficacy, read-out: CPE % Efficacy
[7] = Severe acute respiratory syndrome coronavirus 2, Vero C1008, read-out: CPE % Efficacy
[8] = Severe acute respiratory syndrome coronavirus 2, Vero C1008, read-out: CPE EC50 (uM)

SMILES | cytotoxicity at 72 h (in vitro) | Emax [1, 2] | EC50 [1, 3] | CC50 (in vitro) | cytotoxicity (in vitro) | EC50 [1, 5] | Emax [1, 6] | also measured
CCn1c(=O)c(-c2cc(NC(=O)Nc3ccccc3)c(F)cc2Br)cc2cnc(NC)cc21 [DCC-2618] | 48.5% | 65.4% | 12.6 µM |  |  |  |  | CC50 at 72 h (in vitro): 11.2 µM
O=C(Nc1ccc(-c2ccnc(Nc3ccc(N4CCOCC4)cc3)n2)cc1)C1CCCN1 (stereo not shown) [XL019] |  | 53.9% | 14.1 µM | 8.91 µM | 61.8% |  |  | 
CCCC[C@@H](C=O)NC(=O)[C@H](CC(C)C)NC(=O)OCc1ccccc1 [Calpeptin, reference compound] |  |  |  |  | < 30% |  |  | EC50 ([1]; Severe acute respiratory syndrome coronavirus 2, Vero C1008, 72 h, read-out: CPE EC50): 0.5 µM; Emax [1, 4]: 112%
c1ccc(-c2cc(CCC3CCNCC3)c3ccccc3n2)cc1 [Pipequaline] | 108% |  |  |  |  | 10 µM | 33.3% | CC50 at 72 h (in vitro): 12.6 µM
CN(C)CCCN1c2ccccc2Sc2ccc(Cl)cc21 [Chlorpromazine] |  | 102% | 12.6 µM | 11.2 µM | 45.6% |  |  | 
CC[C@H](CC#N)OC(=O)N[C@@H](C)c1cccc(NC(=O)Nc2ccc(-c3cnco3)c(OC)c2)c1 [AVN944] | 50.3% |  |  |  |  | 11.2 µM | 95.3% | CC50 at 72 h (in vitro): 3.98 µM
CN(C)CCOC(C)(c1ccccc1)c1ccc(Cl)cc1 (stereo not shown) [Chlorphenoxamine] | 36.9% |  |  |  |  | 6.31 µM | 75.3% | CC50 at 72 h (in vitro): 11.2 µM
NC(=O)c1cnc(N[C@@H]2CCCC[C@@H]2N)nc1Nc1cccc(-n2nccn2)c1 [PRT-062607] |  |  |  |  | 24.9% | 11.2 µM | 66.4% | 
CN1CCN(CC/C=C2/c3ccccc3Sc3ccc(S(=O)(=O)N(C)C)cc32)CC1 [THIOTHIXENE] |  |  |  | 12.6 µM | 108% | 3.98 µM | 70.6% | 
CC(CN(C)C)CN1c2ccccc2CCc2ccccc21 (stereo not shown) [Trimipramine maleate] |  |  |  | 15.8 µM | 19.8% | 10 µM | 51.8% | 
C=CC(=O)N[C@H]1CCOC[C@H]1Nc1ncc2cc(-c3c(Cl)c(OC)cc(OC)c3Cl)ccc2n1 [BLU-554] | 0% | 31.5% | 12.6 µM |  |  |  |  | 
O=c1[nH]c2ccccc2n1CCCN1CCN(C(c2ccccc2)c2ccccc2)CC1 [Oxatomide] | 31.3% |  |  |  |  | 10 µM | 83.9% | 
Fc1ccc(C(c2ccc(F)cc2)N2CCN(C/C=C/c3ccccc3)CC2)cc1 [Flunarizine, reference compound] |  |  |  |  | < 30% |  |  | Emax [1, 4]: 94.1%
Cc1cc(C2CCCCC2)n(O)c(=O)c1 [Ciclopirox] | 56.1% |  |  |  |  | 8.91 µM | 63.4% | CC50 at 72 h (in vitro): 2.51 µM
COC(=O)[C@@]12OC[C@]34[C@H]([C@@H](O)[C@@H]1O)[C@@]1(C)CC(=O)C(O)=C(C)[C@@H]1C[C@H]3OC(=O)[C@H](OC(=O)/C=C(\C)C(C)C)[C@@H]24 [Bruceantin] |  |  |  | 0.14 µM | 83.3% | 0.0319 µM | 42.5% | 
CCOC(=O)C1=C(COCCN)NC(C)=C(C(=O)OC)C1c1ccccc1Cl (stereo not shown) [Amlodipine] |  | 99.8% | 12.6 µM |  | 0% |  |  | 
CN(C)CCCN1c2ccccc2CCc2ccccc21 [Imipramine] |  | 57.6% | 12.6 µM |  | 0% |  |  | 
COCCN1CCN(Cc2ccc(-c3n[nH]c4c3C(=O)c3c(NC(=O)NN5CCOCC5)cccc3-4)cc2)CC1 [RGB-286638] | 37.9% |  |  |  |  | 2.82 µM | 111% | CC50 at 72 h (in vitro): 0.32 µM
CCCNCC(O)COc1ccccc1C(=O)CCc1ccccc1 (stereo not shown) [Propafenone hydrochloride] |  | 61.6% | 14.1 µM |  | 0% |  |  | 
Cn1c(Nc2ccc(C(F)(F)F)cc2)nc2cc(Oc3ccnc(-c4ncc(C(F)(F)F)[nH]4)c3)ccc21 [CHIR-265] |  |  |  | 0.32 µM | 92.7% | 0.79 µM | 31.7% | 

SMILES | cytotoxicity at 72 h (in vitro) | Emax [1, 2] | EC50 [1, 3] | CC50 (in vitro) | cytotoxicity (in vitro) | EC50 [1, 5] | Emax [1, 6] | also measured
COc1ccc2cc1Oc1ccc(cc1)C[C@H]1c3c(cc4c(c3Oc3cc5c(cc3OC)CCN(C)[C@@H]5C2)OCO4)CCN1C [Cepharanthine] |  |  |  | 11.2 µM | 105% | 1.41 µM | 91.3% | 
CCCCc1oc2ccccc2c1C(=O)c1cc(I)c(OCCN(CC)CC)c(I)c1 [Amiodarone hydrochloride, reference compound] |  |  |  |  | < 30% |  |  | Emax [1, 4]: 100%
Cc1ccc(NC(=O)Nc2cc(C(F)(F)F)ccc2F)cc1Nc1ccc2c(c1)NC(=O)/C2=C\c1ccc[nH]1 [GNF-5837] |  |  |  | 8.91 µM | 61.4% | 3.16 µM | 84% | 
CCOC(=O)[C@H](CCc1ccccc1)N[C@H]1CCc2ccccc2N(CC(=O)O)C1=O [Benazepril] |  | 108% | 12.6 µM |  | 0% |  |  | 
O=C1Nc2ccc(Cl)cc2[C@@](C#CC2CC2)(C(F)(F)F)O1 [Efavirenz] |  | 90.6% | 14.1 µM |  | 24.3% |  |  | 
CC#C[C@@H](CC(=O)O)c1ccc(OCc2cccc(-c3ccc(C(F)(F)F)cc3)c2)cc1 [AMG-837] |  |  |  | 15.8 µM | 20.2% | 11.2 µM | 106% | 
CN(C)CCC=C1c2ccccc2CCc2ccccc21 [Amitriptyline hydrochloride] |  | 69.9% | 14.1 µM |  | 0% |  |  | 
CC1CCCCN1CCCOC(=O)c1ccc(OC2CCCCC2)cc1 (stereo not shown) [Cyclomethycaine] | 9.6% |  |  |  |  | 8.91 µM | 79.7% | CC50 at 72 h (in vitro): 17.8 µM
CCN(CC)CCN(Cc1ccc(-c2ccc(C(F)(F)F)cc2)cc1)C(=O)Cn1c(SCc2ccc(F)cc2)nc(=O)c2c1CCC2 [Darapladib] |  |  |  | 11.2 µM | 102% | 2.82 µM | 75.1% | 
OCCOc1ccc(/C(=C(/CCCl)c2ccccc2)c2ccccc2)cc1 [Ospemifene] |  |  |  | 12.6 µM | 26.6% |  |  | Emax [1, 7]: 48.2%; EC50 [1, 8]: 12.6 µM
CCN(CC)CCOc1ccc2c(c1)C(=O)c1cc(OCCN(CC)CC)ccc1-2 [TILORONE] | 97.2% |  |  |  |  | 3.98 µM | 74.3% | CC50 at 72 h (in vitro): 11.2 µM
CCCCOc1cc(C(=O)NCCN(CC)CC)c2ccccc2n1 [Dibucaine] | 0% | 61.8% | 12.6 µM |  |  |  |  | 
Clc1ccc2c(c1)C(N1CCNCC1)=Nc1ccccc1O2 [Amoxapine] |  |  |  |  | 13.9% |  | 34.1% | 
Cn1c(NC[C@@H](N)Cc2ccccc2)nc(-c2ccncc2)c(-c2ccc3ccccc3c2)c1=O [AMG-548] | 35.4% |  |  |  |  | 8.91 µM | 75% | CC50 at 72 h (in vitro): 17.8 µM
CN(C)CCC=C1c2ccccc2C=Cc2ccccc21 [Cyclobenzaprine hydrochloride] |  |  |  |  | 23.9% |  |  | Emax [1, 7]: 77.2%; EC50 [1, 8]: 12.6 µM
Cc1ccc(-c2cc(C(F)(F)F)nn2-c2ccc(S(N)(=O)=O)cc2)cc1 [Celecoxib] |  |  |  | 15.8 µM | 9% | 11.2 µM | 79.2% | 
CN1CCN(C(c2ccccc2)c2ccc(Cl)cc2)CC1 (stereo not shown) [Chlorcyclizine] | 18% | 67.4% | 12.6 µM |  |  |  |  | CC50 at 72 h (in vitro): 22.4 µM
CN(C)CCCN1c2ccccc2Sc2ccccc21 [Promazine hydrochloride] |  |  |  |  | 9.4% | 10 µM | 55.8% | 
CN(C)[C@@H](CCOc1cccc2ccccc12)c1ccccc1 [Dapoxetine] | 32% |  |  |  |  | 10 µM | 82.6% | 
CC(/C=C/[C@@H]1C[C@]1(C)c1ccc2c(c1)C(C)(C)CCC2(C)C)=C\C(=O)O [AGN-194204] | 36.8% |  |  |  |  | 11.2 µM | 57% | 
